Results reported in US4570005A, “Process for the preparation of 2-arylpropyl ether or thioether derivatives” (priority 1980, dated 1986).

Columns and labels:
[1] = system: diamond back moth; assay: Test 4: Effect on Diamond Back Moth; assay type: in vivo; conditions: Plutella, third-instar larvae, 24 hours, read-out: Mortality (%)
Outline: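 Compound formulated as an emulsifiable concentrate, diluted in water to 100 or 20 ppm and sprayed at 3 ml per cup onto cabbage leaves holding 10 third-instar larvae. Mortality counted after 24 hours; mean of three cups.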

[2] = system: two-spotted spider mite; assay: Test 6: Effect on Two-Spotted Spider mite Adults; assay type: in vivo; conditions: Tetranychus urticae; 100 ppm; adults; 24 hours; 25° C; read-out: Mortality (%)
Procedure: To a mixture of 20 parts of the compound of the present invention and 20 parts of Sorpol SM-200 (registered tradename for the product supplied by Toho Chemical Industrial Co., Ltd.) was added 60 parts of xylol, and the mixture was suffciently blended. The obtained emulsifiable concentrate was diluted at a predetermined concentration with distilled water, and the obtained dilution was used.
A kidney bean leaf disc perforated with a cork borer (15 mm in diameter) was placed on water-impregnated absorbent cotton (2 cm×2 cm), and 10 adults of two-spotted spider mite were set free. A chemical dilution having a concentration of 100 ppm was applied with an applicator in an amount of 3 ml.
The leaf disc-placed absorbent cotton was placed in a thermostat chamber maintained at 25° C. After 24 hours, the number of killed adults was counted and the mortality was calculated. The test was made on three leaf discs and the average value was calculated.

[3] = system: green peach aphid; assay: Test 5: Effect on Green Peach Aphid; assay type: in vivo; conditions: Myzus persicae; 100 ppm; mortality class; 24 hours; read-out: Insecticidal Activity
Outline: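 Eggplant seedlings with 3–4 leaves were infested with aphids and sprayed with a 100 ppm aqueous dilution of an emulsifiable concentrate, then kept in a glasshouse. Living insects were counted after 24 h. Mortality is averaged over three pots and graded A (>95%), B (80–95%), C (50–80%) or D (<50%).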

[4] = Test 9: Toxicity Test (acute oral toxicity, mice); conditions: mouse, in vivo, po
Procedure: A predetermined amount of a solution or suspension of a test compound in corn oil was orally administered to male mice having a body weight of 19 to 23 g (0.2 ml per 10 g of the body weight). After 7 days, the number of killed mice was counted and the influences on the mice were examined.

[5] = Test 8: Fish Toxicity; assay type: in vivo; conditions: carp, water; concentration at which 1/2 of the test fishes were killed within 48 hours; read-out: Fish Toxicity, TLm48
Procedure: A water tank having a width of 60 cm, a length of 30 cm and a height of 40 cm was filled with water, and 10 yearling carps having a body length of about 5 cm were set free in the tank and adapted to the environment in the tank. A test compound was applied so that the concentration in water was 10, 1 or 0.1 ppm. After 48 hours, the numbers of killed and living carps were counted and the influences on the fishes were examined.

[6] = system: sensitive green rice leafhopper (collected at Chigasaki); assay: whole plant or invertebrate; assay type: in vivo; conditions: Nephotettix cincticeps, sensitive female adults, 24 hours, read-out: Mortality (%), Green Rice Leafhopper Collected at Chigasaki
Outline: (§1)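 Ten adult females per pot, either resistant (Nakagawara) or sensitive (Chigasaki), were caged on air-dried rice seedlings (2–3 leaves) sprayed at 3 ml/pot with 100 or 20 ppm of an emulsifiable concentrate dilution. Dead and living insects were counted after 24 hours; mortality is the mean of three pots.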

[7] = system: tobacco cutworm; assay: Test 2: Tobacco Cutworm Larva Dipping Test, mortality after 24 hours; assay type: in vivo; conditions: 24 hours
Outline: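 Second- and fifth-instar larvae dipped 5 s in a water dilution of an emulsifiable concentrate at 100 or 20 ppm, blotted, then held on artificial diet at 25° C. Dead and living larvae counted after 24 hours; mortality averaged over three cups.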

[8] = system: resistant green rice leafhopper (collected at Nakagawara); assay: Test 3: Effect on Resistant Green Rice Leafhopper (collected at Nakagawara); assay type: in vivo, Nephotettix cincticeps Uhler (Green rice leafhopper); conditions: Nephotettix cincticeps, 24 h, read-out: Mortality (%), Green Rice Leafhopper Collected at Nakagawara
Outline: as §1

[9] = system: tobacco cutworm; assay: Test 1: Effect on Tobacco Cutworm (leaf immersion), mortality after 24 hours; assay type: in vivo; conditions: second-instar larvae, 25° C
Outline: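 Second-instar tobacco cutworm larvae were kept at 25 °C on air-dried sweet-potato leaves that had been immersed for 10 s in test dilutions of 100 or 20 ppm from an emulsifiable concentrate. Mortality was scored at 24 h as the mean of three cups.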

[10] = system: German cockroach; assay: Test 7: Effect on German Cockroach; assay type: in vivo; conditions: Blattella germanica, male adults, agonized and killed after 24 hours, read-out: Mortality (%); for mortality at 10 mg/m2: 10 mg/m^2; for mortality at 50 mg/m2: 50 mg/m^2
Outline: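 Petri dish floors were treated with 50 or 10 mg/m2 of compound (diluted emulsifiable concentrate) and air-dried. Ten male adult German cockroaches per dish were held at 25° C. Agonized and dead insects were counted after 24 hours, averaging two dishes.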

[11] = fifth-instar larvae, read-out: Motality (%), Fifth-Instar Larvae
[12] = second-instar larvae, read-out: Motality (%), Second-Instar Larvae

SMILES | mortality at 20 ppm [1] [%] | mortality at 100 ppm [1] [%] | mortality at 100 ppm [2] [%] | mortality at 100 ppm [3] [%] | LD50 at 168 h [4] [mg/kg] | LC50 at 48 h [5] [µg/mL] | mortality at 20 ppm [6] [%] | mortality at 100 ppm [6] [%] | mortality at 20 ppm [7, 11] [%] | mortality at 20 ppm [7, 12] [%] | mortality at 100 ppm [7, 11] [%] | mortality at 100 ppm [7, 12] [%] | mortality at 20 ppm [8] [%] | mortality at 100 ppm [8] [%] | mortality at 20 ppm [9] [%] | mortality at 100 ppm [9] [%] | mortality at 10 mg/m2 [10] [%] | mortality at 50 mg/m2 [10] [%]
CC(C)COc1ccc(C(C)(C)COCc2cccc(Oc3ccccc3)c2)cc1 [Compound 64, 3-Phenoxybenzyl 2-(4-isobutyloxyphenyl)-2-methylpropyl ether] | 70 | 100 | 100 | > 95 | > 500 |  |  |  |  |  |  |  |  |  |  |  |  | 
CCC(C)(COCc1cccc(Oc2ccc(Br)cc2)c1)c1ccc(Cl)cc1 (centres unmarked) [Compound 46] | 100 | 100 | 95 |  | > 500 | > 10 | 65 | 100 | 60 | 80 | 80 | 90 | 80 | 100 | 100 | 100 |  | 
CCOc1ccc(C(C)(C)COCc2cccc(Oc3ccccc3)c2)cc1C [Compound 90, 3-Phenoxybenzyl 2-(4-ethoxy-3-methylphenyl)-2-methylpropyl ether] | 100 | 100 | 100 |  | > 500 |  | 100 | 100 | 90 | 100 | 100 | 100 | 100 | 100 | 100 | 100 | 90 | 100
CCCCOc1ccc(C(C)(C)COCc2cccc(Oc3ccccc3)c2)cc1 [Compound 69, 3-Phenoxybenzyl 2-[4-(n-butoxy)phenyl]-2-methylpropyl ether] |  |  | 60 | > 95 | > 500 | > 1 |  |  |  |  |  |  |  |  |  |  |  | 
CC(C)Oc1ccc(C(C)(C)COCc2cccc(Oc3ccccc3)c2)cc1 [Compound 59, 3-Phenoxybenzyl 2-(4-isopropoxyphenyl)-2-methylpropyl ether] | 85 | 100 | 100 | > 95 | > 500 |  | 100 | 100 | 100 | 100 | 100 | 100 | 100 | 100 |  |  | 100 | 100
CC(C)C(COCc1cccc(Oc2ccccc2)c1)c1ccc(Cl)cc1 (centres unmarked) [Comparative Compound (b), reference compound] | 10 | 30 | 20 | < 50 |  |  |  |  |  |  | 0 | 0 |  |  |  |  |  | 
CC(C)(COCc1cccc(Cc2ccccc2)c1)c1ccc(Cl)cc1 [Compound 35, 3-Benzylbenzyl 2-(4-chlorophenyl)-2-methylpropyl ether] |  |  | 85 |  | > 500 | > 10 | 50 | 100 |  |  |  |  | 70 | 100 |  |  |  | 
